Source: US20210087217A1, “NUCLEOTIDE HEMI-SULFATE SALT FOR THE TREATMENT OF HEPATITIS C VIRUS” (Atea Pharmaceuticals, Inc., priority 2017, published 2021)
“Also recorded” adds a separate entry of the source. Counter-ions that a name gives are not always drawn.

Legend:
[1] = Single ascending dose study of Compound 2 in GT1-HCV infected patients (Part B): safety, tolerability, pharmacokinetic; format: in vivo, human
Method: Subjects in Part B received a single dose of Compound 2 in the fasting state. Patients were confined to the clinic from Day −1 to Day 6.
Part B was initiated after the safety (through Day 5) and plasma pharmacokinetic (through 24 h) data review from Cohort 3a in Part A. Available safety data (through Day 5) and pharmacokinetic data (through 24 h) was reviewed for the first cohort in Part B (Cohort 1b) before enrolling subsequent Part B cohorts. Subsequent Part B cohorts were only dosed following review of available safety and pharmacokinetic data from the respective doses in Part A as well as available safety (through Day 5) from the prior Part B cohorts.
Patients infected with HCV were treatment-naïve, non-cirrhotic GT1-infected subjects with a viral load of ≥5 log10 IU/mL.
(§1) Pharmacokinetic of Compound 1 and nucleoside metabolite 1-7 were measured following the single dose of Compound 2. […] Values are reported as mean±SD, except or Tmax where median (range) is reported.
Plasma exposure of Compound 1 was dose-related while exposure of metabolite 1-7 was dose-proportional.

[2] = Head-to-head comparison of plasma levels in dogs dosed with Compound 1 and Compound 2; format: in vivo, dog; settings: dosed Compound 1 25 mg/kg or Compound 2 30 mg/kg, normalized to a dose of 25 mg/kg
Method: A head-to-head comparison of dogs dosed with Compound 1 and Compound 2 was conducted.

[3] = Plasma profiles of Compound 2 metabolites in monkeys; format: in vivo, cynomolgus monkeys; settings: monkeys, single oral 30, 100 or 300 mg/kg Compound 2
[4] = Heart and liver tissue levels of active triphosphate 4 hours after oral Compound 2, rats; format: in vivo, rat; settings: 4 hours after oral dose of Compound 2
Method: (§2) High levels of the active TP were measured in the liver of all species tested.

[5] = Heart and liver tissue levels of active triphosphate 4 hours after oral Compound 2, dogs; format: in vivo, dog; settings: 4 hours after oral dose of Compound 2
Method: as §2

[6] = Heart and liver tissue levels of active triphosphate 4 hours after oral Compound 2, monkeys; format: in vivo, monkey; settings: 4 hours after oral dose of Compound 2
Method: as §2

[7] = Single ascending dose study of Compound 2 in healthy volunteers (Part A): safety, tolerability, pharmacokinetic; format: in vivo, human; settings: healthy subjects
Method: Compound 2 was tested in a single ascending dose (SAD) study to measure its safety, tolerability, and pharmacokinetic in healthy subjects (Part A). Part A was a randomized, double-blind, placebo-controlled SAD study. Healthy subjects in Part A received a single dose of Compound 2 or placebo in the fasting state. Subjects were confined to the clinic from Day −1 to Day 6.
Dosing in each cohort was staggered such that 2 subjects (1 active:1 placebo) were evaluated for 48 hours after dosing before the remainder of the cohort was dosed. Each cohort received Compound 2 in ascending order. Dosing of sequential cohorts occurred based on review of available safety data (through Day 5) and plasma pharmacokinetic data (through 24 h) of the prior cohort.
As pharmacokinetic and safety data emerged from prior cohorts, doses evaluated in Cohorts 3a-4a were adjusted by increments no more than 100 mg.
Healthy volunteers in the Part A portion of the study were male and female subjects between the ages of 18 and 65. Active and placebo recipients were pooled within each Part A cohort to preserve the study blind.
as §1

[8] = Plasma levels of metabolites following single oral dose of Compound 2, rats; format: in vivo, rat; settings: single oral dose of Compound 2
[9] = Ambient stability (25 ± 2° C./60 ± 5% RH) of Compound 2; format: physicochemical
Method: Three conditions were tested: accelerated stability (40 2° C./75±5% RH) over a 6-month time period, ambient stability (25±2° C./60±5% RH) over a 9-month period, and stability under refrigerator conditions (5 3° C.) over a 9-month time period. The results for accelerated stability, ambient stability, and refrigerator conditions are shown in Table 23, Table 24, and Table 25, respectively.
After 9 months, the percentage of water in the sample was only 0.20% and the total related substance 1 impurities was only 0.02%.

[10] = Plasma levels of metabolites following single oral doses of Compound 2, monkeys; format: in vivo, monkey; settings: for AUC(0-t) / Cmax / Tmax: monkey, plasma, po
[11] = Solubility in biorelevant test medias (water, SGF, FaSSIF, FeSSIF)
[12] = Part B, GT1-HCV infected patients
[13] = 25° C./60% RH, over nine months
[14] = 25 ± 2° C./60 ± 5% RH, 1st month
[15] = 25 ± 2° C./60 ± 5% RH, 3rd month
[16] = 25 ± 2° C./60 ± 5% RH, 6th month
[17] = 25 ± 2° C./60 ± 5% RH, 9th month

SMILES: CNc1nc(N)nc2c1ncn2[C@@H]1O[C@H](CO[P@@](=O)(N[C@@H](C)C(=O)OC(C)C)Oc2ccccc2)[C@@H](O)[C@@]1(C)F [Compound 2, hemi-sulfate salt of isopropyl((S)-(((2R,3R,4R,5R)-5-(2-amino-6-(methylamino)-9H-purin-9-yl)-4-fluoro-3-hydroxy-4-methyltetrahydrofuran-2-yl)methoxy)(phenoxy)phosphoryl)-L-alaninate]
- Intensity of adverse effects [1, 12]: mild to moderate
- Serious adverse events [1, 12]: No serious adverse events
- Time within which Compound 1 was absorbed and metabolized ([1]; all cohorts from Part B, single dose of Compound 2): ≤ 8 h
- Tolerability ([1]; hepatitis C infected patients, single oral dose): well tolerated
- Plasma exposure of Compound 1 versus dose ([1]; single dose of Compound 2): dose-related
- Plasma exposure of metabolite 1-7 versus dose ([1]; single dose of Compound 2): mostly dose-proportional
- Mean Dose-normalized AUC(0-4hr) for Compound 1 [2]: 1.0 µM·h
- Dose proportionality of metabolite 1-7 exposures [3]: somewhat less than dose-proportional
- Dose proportionality of plasma exposures (AUC) of Compound 1 [3]: roughly dose-proportional
- Active TP (metabolite 1-6) level in heart [4]: unquantifiable levels
- Active TP (metabolite 1-6) level in liver [4]: High levels
- Active TP (metabolite 1-6) level in heart [5]: Relatively low levels
- Active TP (metabolite 1-6) level in liver [5]: High levels
- Active TP (metabolite 1-6) level in heart [6]: unquantifiable levels
- Active TP (metabolite 1-6) level in liver [6]: High levels
- Intensity of adverse effects ([7]; Part A): mild to moderate
- Serious adverse events ([7]; Part A): No serious adverse events
- Tolerability ([7]; single oral dose): well tolerated
- Compound 1 exposure [8]: low levels
- Metabolite 1-7 levels [8]: high levels
- Percentage of water ([9]; 25° C./60% RH, after 9 months): 0.20%
- Total related substance 1 impurities ([9]; 25° C./60% RH, after 9 months): 0.02%
- Related substance 2 and any isomers ([9]; 25° C./60% RH, nine months): not detected
- Appearance [9, 13]: white solid
- IR [9, 13]: corresponded with the reference sample
- Appearance ([9]; 25 ± 2° C./60 ± 5% RH, 0 month): White
- Assay ([9]; 25 ± 2° C./60 ± 5% RH, 0 month): 98.8%
- IR ([9]; 25 ± 2° C./60 ± 5% RH, 0 month): correspond
- Related Substance 1 Any other single impurity ([9]; 25 ± 2° C./60 ± 5% RH, 0 month): 0.01%
- Related Substance 1 Total Impurities ([9]; 25 ± 2° C./60 ± 5% RH, 0 month): 0.01%
- Water ([9]; 25 ± 2° C./60 ± 5% RH, 0 month): 0.45%
- Appearance [9, 14]: White
- Assay [9, 14]: 101.1%
- Related Substance 1 Any other single impurity [9, 14]: 0.01%
- Related Substance 1 Total Impurities [9, 14]: 0.02%
- Water [9, 14]: 0.19%
- Appearance [9, 15]: White
- Assay [9, 15]: 99.6%
- IR [9, 15]: correspond
- Related Substance 1 Any other single impurity [9, 15]: 0.03%
- Related Substance 1 Impurity B [9, 15]: 0.03%
- Related Substance 1 Impurity F [9, 15]: 0.02%
- Related Substance 1 Total Impurities [9, 15]: 0.11%
- Water [9, 15]: 0.29%
- Appearance [9, 16]: White solid
- Assay [9, 16]: 99.7%
- IR [9, 16]: correspond
- Related Substance 1 Any other single impurity [9, 16]: 0.02%
- Related Substance 1 Impurity F [9, 16]: 0.01%
- Related Substance 1 Total Impurities [9, 16]: 0.05%
- Water [9, 16]: 0.46%
- Appearance [9, 17]: Off-white
- Assay [9, 17]: 100.9%
- IR [9, 17]: correspond
- Related Substance 1 Any other single impurity [9, 17]: 0.02%
- Related Substance 1 Total Impurities [9, 17]: 0.02%
- Water [9, 17]: 0.20%
- Stability ([9]; ambient conditions (25° C./60% RH), 9 months): very stable; also recorded: stable
- AUC(0-t) ([10]; 30 mg/kg): 176 ng·h/mL
- Cmax ([10]; 30 mg/kg): 63.5 ng/mL
- Tmax ([10]; 30 mg/kg): 0.5 to 2 h
- AUC(0-t) ([10]; 100 mg/kg): 1100 ng·h/mL
- Cmax ([10]; 100 mg/kg): 783 ng/mL
- Tmax ([10]; 100 mg/kg): 1 to 2 h
- AUC(0-t) ([10]; 300 mg/kg): 1600 ng·h/mL
- Cmax ([10]; 300 mg/kg): 501 ng/mL
- Tmax ([10]; 300 mg/kg): 204 h
- Vomiting (animals affected) ([10]; monkeys, high dose group): 1/5
- Dose proportionality of Compound 1 exposures ([10]; monkeys, single oral doses of Compound 2): roughly dose-proportional
- Appearance in solubility test ([11]; FaSSIF): Turbid
- Solubility descriptive term ([11]; FaSSIF): Slightly
- Appearance in solubility test ([11]; FeSSIF): Turbid
- Solubility descriptive term ([11]; FeSSIF): Slightly
- Appearance in solubility test ([11]; SGF): Turbid
- Solubility descriptive term ([11]; SGF): Soluble
- Appearance in solubility test ([11]; Water): Turbid
- Solubility descriptive term ([11]; Water): Soluble
- Times more soluble in water compared to Compound 1 ([11]; Water): up to 43 times
- Times more soluble than Compound 1 under SGF conditions ([11]; simulated gastric fluid (SGF)): over 6 times
